pEC50: −log10 of the molar value.
How the values were obtained:
muscarinic M1 receptor = target: T1, muscarinic M1 receptor (Homo sapiens, UniProt P11229); experiment: M1 PAM Assay (IP-One HTRF, IP1 in M1-CHO cells with EC20 of acetylcholine); assay type: cell-based; conditions: 1 hour at room temperature, IP1 readout
T1 construct: expressed in transfected cells; host or cells: CHO (M1-CHO cells)
T1 sequence (P11229 1-460): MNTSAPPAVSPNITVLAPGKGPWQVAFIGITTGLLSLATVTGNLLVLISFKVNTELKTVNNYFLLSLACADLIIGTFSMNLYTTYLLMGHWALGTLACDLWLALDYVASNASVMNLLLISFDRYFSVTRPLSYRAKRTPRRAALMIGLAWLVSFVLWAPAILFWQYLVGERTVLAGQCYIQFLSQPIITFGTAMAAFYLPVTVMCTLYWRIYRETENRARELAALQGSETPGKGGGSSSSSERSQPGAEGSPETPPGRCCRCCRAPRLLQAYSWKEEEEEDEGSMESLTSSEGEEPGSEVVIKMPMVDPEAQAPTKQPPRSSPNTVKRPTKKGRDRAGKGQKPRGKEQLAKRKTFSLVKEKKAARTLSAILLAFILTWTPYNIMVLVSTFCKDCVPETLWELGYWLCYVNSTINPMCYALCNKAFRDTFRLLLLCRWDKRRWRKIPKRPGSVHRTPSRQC
Description: M1-CHO cells are plated in culture medium (HAM's F12, P/S, 10% FCS) on the day before the experiment with 10 000 cells/well in a 384 well plate (3750 Corning White 384 w plate with lid). On the day of experiment, cells are washed with PBS and IPone buffer is added (glucose 5.5 mM, NaCl 146 mM, MgCl2 0.5 mM, HEPES 10 mM, LiCl 50 mM, CaCl2 1 mM, KCl 4.2 mM). Then diluted compounds (1% DMSO final concentration) are added together with EC20 of acetylcholine and incubated with the cells for 1 hour at room temperature. The intracellular concentration of IP1 is then measured using the IP-One HTRF assay from Cisbio.

pEC50 (muscarinic M1 receptor): 5.70 to 6.00
melting point: 208 to 215 °C
Structure (SMILES): CCOc1ccc(Br)cc1C(=O)N1Cc2nn3c(C)c(C)c(C)nc3c2C1 [Example 45, (5-bromo-2-ethoxy-phenyl)-(5,6,7-trimethyl-1H,3H-2,4,7a,8-tetraaza-cyclopenta[a]inden-2-yl)-methanone]

From patent US9403835B2, “Tetraaza-cyclopenta[a]indenyl and their use as positive allosteric modulators” (Merck Patent GmbH, priority 2011, dated 2016)
